Assay [1] deals with T1, mouse TAAR1 (Mus musculus, UniProt Q923Y8).
T1 construct: expressed in transfected cells; membrane preparation
As to the kind of experiment: Radioligand binding assay on mouse TAAR1. Conditions: for Ki: mouse TAAR1, HEK-293 membranes, first value of cell mouse/rat. The method, then:
(§1) For the construction of expression plasmids the coding sequences of human, rat and mouse TAAR 1 were amplified from genomic DNA essentially as described by Lindemann et al.. The Expand High Fidelity PCR System (Roche Diagnostics) was used with 1.5 mM Mg^2+ and purified PCR products were cloned into pCR2.1-TOPO cloning vector (Invitrogen) following the instructions of the manufacturer. PCR products were subcloned into the pIRESneo2 vector (BD Clontech, Palo Alto, Calif.), and expression vectors were sequence verified before introduction in cell lines.
(§2) HEK293 cells (ATCC # CRL-1573) were cultured essentially as described by Lindemann et al. (2005). For the generation of stably transfected cell lines HEK293 cells were transfected with the pIRESneo2 expression plasmids containing the TAAR coding sequences (described above) with Lipofectamine 2000 (Invitrogen) according to the instructions of the manufacturer, and 24 hrs post transfection the culture medium was supplemented with 1 mg/ml G418 (Sigma, Buchs, Switzerland). After a culture period of about 10 d clones were isolated, expanded and tested for responsiveness to trace amines (all compounds purchased from Sigma) with the cAMP Biotrak Enzyme immunoassay (EIA) System (Amersham) following the non-acetylation EIA procedure provided by the manufacturer.
Radioligand Binding Assay on Mouse TAAR1
(§3) Membrane Preparation and Radioligand Binding.
HEK-293 cells stably expressing mouse TAAR1 were maintained at 37° C. and 5% CO2 in DMEM high glucose medium, containing fetal calf serum (10%, heat inactivated for 30 min at 56° C.), penicillin/streptomycin (1%), and 375 μg/ml geneticin (Gibco). Cells were released from culture flasks using trypsin/EDTA, harvested, washed twice with ice-cold PBS (without Ca^2+ and Mg^2+), pelleted at 1,000 rpm for 5 min at 4° C., frozen and stored at −80° C. Frozen pellets were suspended in 20 ml HEPES-NaOH (20 mM, pH 7.4) containing 10 mM EDTA and homogenized with a Polytron (PT 6000, Kinematica) at 14,000 rpm for 20 s. The homogenate was centrifuged at 48,000×g for 30 min at 4° C. Subsequently, the supernatant was removed and discarded, and the pellet resuspended in 20 ml HEPES-NaOH (20 mM, pH 7.4) containing 0.1 mM EDTA using the Polytron (20 s at 14,000 rpm). This procedure was repeated and the final pellet resuspended in HEPES-NaOH containing 0.1 mM EDTA and homogenized using the Polytron. Typically, aliquots of 2 ml membrane portions were stored at −80° C. With each new membrane batch the dissociation constant (Kd) was determined via a saturation curve. The TAAR1 radioligand ^3[H]—(S)-4-[(ethyl-phenyl-amino)-methyl]-4,5-dihydro-oxazol-2-ylamine (described in WO 2008/098857) was used at a concentration equal to the calculated Kd value, that was usually around 0.7 nM, resulting in the binding of approximately 0.5% of the radioligand and a specific binding representing approximately 70% of the total binding. Nonspecific binding was defined as the amount of ^3[H]—(S)-4-[(ethyl-phenyl-amino)-methyl]-4,5-dihydro-oxazol-2-ylamine bound in the presence of 10 μM unlabeled ligand. All compounds were tested at a broad range of concentrations (10 pM to 10 μM) in duplicates. The test compounds (20 μl/well) were transferred into a 96 deep well plate (TreffLab), and 180 μl of HEPES-NaOH (20 mM, pH 7.4) containing MgCl2 (10 mM) and CaCl2 (2 mM) (binding buffer), 300 μl of the radioligand ^3[H]—(S)-4-[(ethyl-phenyl-amino)-methyl]-4,5-dihydro-oxazol-2-ylamine at a concentration of 3.3×Kd in nM and 500 μl of the membranes (resuspended at 60 μg protein per ml) added. The 96 deep well plates were incubated for 1 hr at 4° C. Incubations were terminated by rapid filtration through Unifilter-96 plates (Packard Instrument Company) and glass filters GF/C (Perkin Elmer) presoaked for 1 hr in polyethylenimine (0.3%) and washed 3 times with 1 ml of cold binding buffer. […]

Assay [2] concerns the target T2, rat TAAR1 (Rattus norvegicus, UniProt Q923Y9).
T2 construct: expressed in transfected cells; membrane preparation
The experiment in a line: Radioligand binding assay on rat TAAR1. Conditions: for Ki: rat TAAR1, HEK-293 membranes, second value of cell mouse/rat. The method, then:
as §1, §2
Radioligand Binding Assay on Rat TAAR1
as §3
HEK-293 cells stably expressing rat TAAR1 were maintained at 37° C. and 5% CO2 in DMEM high glucose medium, containing fetal calf serum (10%, heat inactivated for 30 min at 56° C.), penicillin/streptomycin (1%), and 375 μg/ml geneticin (Gibco). Cells were released from culture flasks using trypsin/EDTA, harvested, washed twice with ice-cold PBS (without Ca^2+ and Mg^2+), pelleted at 1,000 rpm for 5 min at 4° C., frozen and stored at −80° C. Frozen pellets were suspended in 20 ml HEPES-NaOH (20 mM, pH 7.4) containing 10 mM EDTA and homogenized with a Polytron (PT 6000, Kinematica) at 14,000 rpm for 20 s. The homogenate was centrifuged at 48,000×g for 30 min at 4° C. Subsequently, the supernatant was removed and discarded, and the pellet resuspended in 20 ml HEPES-NaOH (20 mM, pH 7.4) containing 0.1 mM EDTA using the Polytron (20 s at 14,000 rpm). This procedure was repeated and the final pellet resuspended in HEPES-NaOH containing 0.1 mM EDTA and homogenized using the Polytron. Typically, aliquots of 2 ml membrane portions were stored at −80° C. With each new membrane batch the dissociation constant (Kd) was determined via a saturation curve. […] Nonspecific binding was defined as the amount of ^3[H]—(S)-4-[(ethyl-phenyl-amino)-methyl]-4,5-dihydro-oxazol-2-ylamine bound in the presence of 10 μM unlabeled ligand. All compounds were tested at a broad range of concentrations (10 pM to 10 μM) in duplicates. The test compounds (20 μl/well) were transferred into a 96 deep well plate (TreffLab), and 180 μl of HEPES-NaOH (20 mM, pH 7.4) containing MgCl2 (10 mM) and CaCl2 (2 mM) (binding buffer), 300 μl of the radioligand ^3[H]—(S)-4-[(ethyl-phenyl-amino)-methyl]-4,5-dihydro-oxazol-2-ylamine at a concentration of 3.3×Kd in nM and 500 μl of the membranes (resuspended at 50 μg protein per ml) added. The 96 deep well plates were incubated for 1 hr at 4° C. Incubations were terminated by rapid filtration through Unifilter-96 plates (Packard Instrument Company) and glass filters GF/C (Perkin Elmer) presoaked for 1 hr in polyethylenimine (0.3%) and washed 3 times with 1 ml of cold binding buffer. After addition of 45 μl of Microscint 40 (PerkinElmer) the Unifilter-96 plate was sealed and after 1 hr the […] counted using a TopCount Microplate Scintillation Counter (Packard Instrument Company).

This note sets out measurements from patent publication US20160272626A1, “PYRAZINE DERIVATIVES” (HOFFMANN-LA ROCHE INC., priority 2012, published 2016).

Where a name gives a salt, the structure may show the parent alone.

T2 sequence (Q923Y9 whole entry): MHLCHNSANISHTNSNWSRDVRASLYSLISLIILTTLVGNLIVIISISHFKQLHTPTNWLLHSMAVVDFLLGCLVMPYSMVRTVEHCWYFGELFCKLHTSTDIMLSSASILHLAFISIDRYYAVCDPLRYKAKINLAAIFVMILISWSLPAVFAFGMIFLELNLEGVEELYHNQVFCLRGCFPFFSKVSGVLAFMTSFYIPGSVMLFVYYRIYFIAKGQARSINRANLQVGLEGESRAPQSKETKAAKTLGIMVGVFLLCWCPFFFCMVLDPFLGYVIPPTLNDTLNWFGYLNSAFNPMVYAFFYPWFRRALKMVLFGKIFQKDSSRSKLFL
T1 sequence (Q923Y8 whole entry): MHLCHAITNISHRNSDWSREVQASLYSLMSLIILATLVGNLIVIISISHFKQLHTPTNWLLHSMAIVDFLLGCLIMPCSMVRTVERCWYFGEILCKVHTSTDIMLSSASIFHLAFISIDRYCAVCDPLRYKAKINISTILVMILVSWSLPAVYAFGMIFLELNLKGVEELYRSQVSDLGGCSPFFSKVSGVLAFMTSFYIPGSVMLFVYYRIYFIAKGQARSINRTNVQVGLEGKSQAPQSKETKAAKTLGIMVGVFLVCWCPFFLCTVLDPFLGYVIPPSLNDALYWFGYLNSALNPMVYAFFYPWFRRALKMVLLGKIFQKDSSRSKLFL

Turning to `O=C(Nc1ccc([C@@H]2CNCCO2)c(F)c1)c1cnc(C(F)(F)F)cn1` [Example 1, (R)—N-(3-Fluoro-4-(morpholin-2-yl)phenyl)-5-(trifluoromethyl)pyrazine-2-carboxamide hydrochloride], the Ki in assay [1] came to 0.0115 µM; in assay [2], 0.009 µM.

As to `COc1cnc(C(=O)Nc2ccc([C@H]3CNCCO3)c(F)c2)cn1` [Example 10, (S)—N-(3-Fluoro-4-(morpholin-2-yl)phenyl)-5-methoxypyrazine-2-carboxamide hydrochloride], the Ki in assay [1] is 0.0136 µM; in assay [2], 0.54 µM.

Take `O=C(Nc1ccc([C@@H]2CNCCO2)c(F)c1)c1cnc(OCC(F)(F)F)cn1` [Example 28, (R)—N-(3-Fluoro-4-(morpholin-2-yl)phenyl)-5-(2,2,2-trifluoroethoxy)pyrazine-2-carboxamide]: the results for the Ki in assay [1] and in assay [2] were 0.0053 µM and 0.0037 µM, respectively.

As to `O=C(Nc1ccc([C@H]2CNCCO2)c(F)c1)c1cnc(OCC(F)(F)F)cn1` [Example 24, (S)—N-(3-Fluoro-4-(morpholin-2-yl)phenyl)-5-(2,2,2-trifluoroethoxy)pyrazine-2-carboxamide], the Ki was 0.0042 µM in assay [1] and 0.0202 µM in assay [2].

Consider `O=C(Nc1ccc([C@H]2CNCCO2)c(F)c1)c1cnc(OCC2CC2)cn1` [Example 12, (S)-5-(Cyclopropylmethoxy)-N-(3-fluoro-4-(morpholin-2-yl)phenyl)pyrazine-2-carboxamide hydrochloride], for which the inhibition constant (Ki) in assay [1] came to 0.0045 µM; in assay [2], 0.04 µM.

With `COc1cnc(C(=O)Nc2ccc([C@@H]3CNCCO3)c(F)c2)cn1` [Example 8, (R)—N-(3-Fluoro-4-(morpholin-2-yl)phenyl)-5-methoxypyrazine-2-carboxamide hydrochloride], the results for the Ki in assay [1] and in assay [2] were 0.0107 µM and 0.0476 µM, respectively.

`COc1cncc(C(=O)Nc2ccc([C@@H]3CNCCO3)c(F)c2)n1` [Example 7, (R)—N-(3-Fluoro-4-(morpholin-2-yl)phenyl)-6-methoxypyrazine-2-carboxamide hydrochloride]: the Ki was 0.147 µM in assay [1] and 0.068 µM in assay [2].

Turning to `O=C(Nc1ccc([C@@H]2CNCCO2)cc1F)c1cnc(C2CC2)cn1` [Example 20, (R)-5-Cyclopropyl-N-(2-fluoro-4-(morpholin-2-yl)phenyl)pyrazine-2-carboxamide], the Ki in assay [1] was 0.0099 µM; in assay [2] it was 0.0708 µM.

Consider `N#Cc1cc(NC(=O)c2cnc(C(F)(F)F)cn2)ccc1[C@H]1CNCCO1` [Example 3, (S)—N-(3-Cyano-4-(morpholin-2-yl)phenyl)-5-(trifluoromethyl)pyrazine-2-carboxamide hydrochloride], for which the Ki in assay [1] came to 0.0204 µM; in assay [2], 1.09 µM.

Turning to `CCN(C[C@H]1COC(N)=N1)c1ccccc1` [^3[H]—(S)-4-[(ethyl-phenyl-amino)-methyl]-4,5-dihydro-oxazol-2-ylamine, reference compound], the Kd was roughly 0.7 nM in assay [1] (mouse TAAR1 membranes, saturation curve, usual value, read-out: dissociation constant (Kd) of the radioligand) and roughly 2.3 nM in assay [2] (rat TAAR1 membranes, saturation curve, usual value, read-out: dissociation constant (Kd) of the radioligand).

As to `N#Cc1cc(NC(=O)c2cnc(C(F)(F)F)cn2)ccc1[C@@H]1CNCCO1` [Example 2, (R)—N-(3-Cyano-4-(morpholin-2-yl)phenyl)-5-(trifluoromethyl)pyrazine-2-carboxamide hydrochloride], the inhibition constant (Ki) was 0.0184 µM in assay [1] and 0.0186 µM in assay [2].

For `CCOc1cnc(C(=O)Nc2ccc([C@H]3CNCCO3)c(F)c2)cn1` [Example 13, (S)-5-Ethoxy-N-(3-fluoro-4-(morpholin-2-yl)phenyl)pyrazine-2-carboxamide hydrochloride], the Ki in assay [1] worked out at 0.0041 µM; in assay [2], 0.11 µM.

For the compound `Cc1ccc2ncc(C(=O)Nc3ccc([C@H]4CNCCO4)c(F)c3)nc2c1` [Example 15, 7-Methyl-quinoxaline-2-carboxylic acid ((S)-3-fluoro-4-morpholin-2-yl-phenyl)-amide hydrochloride], the Ki was determined as 0.0068 µM in assay [1] and 0.0131 µM in assay [2].

For the compound `COc1cncc(C(=O)Nc2ccc([C@H]3CNCCO3)c(F)c2)n1` [Example 9, (S)—N-(3-Fluoro-4-(morpholin-2-yl)phenyl)-6-methoxypyrazine-2-carboxamide hydrochloride], the inhibition constant (Ki) in assay [1] was determined as 0.0314 µM; in assay [2], 0.247 µM.

For the compound `O=C(Nc1ccc([C@H]2CNCCO2)cc1F)c1cnc(C2CC2)cn1` [Example 19, (S)-5-Cyclopropyl-N-(2-fluoro-4-(morpholin-2-yl)phenyl)pyrazine-2-carboxamide], the Ki in assay [1] is 0.0061 µM; in assay [2], 0.235 µM.

With `CC(C)c1cncc(C(=O)Nc2ccc([C@H]3CNCCO3)c(F)c2)n1` [Example 21, 6-Isopropyl-pyrazine-2-carboxylic acid ((S)-3-fluoro-4-morpholin-2-yl-phenyl)-amide], the Ki in assay [1] was determined as 0.0181 µM; in assay [2], 0.0849 µM.

Turning to `O=C(Nc1ccc([C@H]2CNCCO2)c(F)c1)c1cncc(OCC(F)(F)F)n1` [Example 26, (S)—N-(3-Fluoro-4-(morpholin-2-yl)phenyl)-6-(2,2,2-trifluoroethoxy)pyrazine-2-carboxamide], the Ki is 0.0167 µM in assay [1] and 0.0032 µM in assay [2].

Regarding `O=C(Nc1ccc([C@H]2CNCCO2)cc1F)c1cnc(OCC(F)(F)F)cn1` [Example 23, (S)—N-(2-Fluoro-4-(morpholin-2-yl)phenyl)-5-(2,2,2-trifluoroethoxy)pyrazine-2-carboxamide], the Ki in assay [1] was determined as 0.0046 µM; in assay [2], 0.0881 µM.

Broadly, the Ki is a measure of affinity in units of concentration, obtained from inhibition or displacement. High values mean weaker binding, low ones tighter binding. The term Kd denotes the constant that tells how readily two partners part at equilibrium.
